{"source": "patent US20050106243A1", "about": "“Process for the preparation of free-flowing, pulverized atorvastatin adsorbates” (priority 2003, published 2005)", "assay": "Impurity profile (sum of all impurities, HPLC) at start and after storage", "format": "physicochemical", "experimental": "All HPLC measurements were performed with an […].\nImpurity profile: Sum of all the impurities: HPLC, in %: […]", "data": [{"smiles": "CC(C)c1c(C(=O)Nc2ccccc2)c(-c2ccccc2)c(-c2ccc(F)cc2)n1CC[C@@H](O)C[C@@H](O)CC(=O)[O-].CC(C)c1c(C(=O)Nc2ccccc2)c(-c2ccccc2)c(-c2ccc(F)cc2)n1CC[C@@H](O)C[C@@H](O)CC(=O)[O-].[Ca+2]", "note": "(relative stereo) [amorphous atorvastatin calcium, calcium salt of [R-(R*,R*)]-2-(4-fluorophenyl)-β,δ-dihydroxy-5-(1-methylethyl)-3-phenylphenylamino)carbonyl]-1H-pyrrol-1-heptanoic acid]", "values": [{"measurement": "Sum of all the impurities, HPLC", "setting": "15 days (70° C./75% relative humidity)", "value": 1.92, "unit": "%"}, {"measurement": "Sum of all the impurities, HPLC", "setting": "Start", "value": 1.07, "unit": "%"}]}]}
